Source: US7592457B2 (Korea Research Institute of Chemical Technology, priority 2004, dated 2009)

Experiments:
[1] = target: T1, 5-HT7 (Homo sapiens, UniProt P34969); experiment: Radioligand binding, 5-HT7 ([3H]LSD); details: read-out: Binding affinity (Inhibition rate % at 10 μM) 5HT7
T1 construct: purchased Euroscreen/BioSignal Packard Inc
Protocol: (§1) Radioligand bindings were performed according to the test method provided by the supplier of receptor membrane (Euroscreen/BioSignal Packard Inc.).

[2] = target: T2, 5-HT1a (Homo sapiens, UniProt P08908); experiment: Radioligand binding, 5-HT1a ([3H]8-OH-DPAT); details: read-out: Binding affinity (Inhibition rate % at 10 μM) 5HT1a
T2 construct: purchased Euroscreen/BioSignal Packard Inc
T2 sequence (P08908 1-422): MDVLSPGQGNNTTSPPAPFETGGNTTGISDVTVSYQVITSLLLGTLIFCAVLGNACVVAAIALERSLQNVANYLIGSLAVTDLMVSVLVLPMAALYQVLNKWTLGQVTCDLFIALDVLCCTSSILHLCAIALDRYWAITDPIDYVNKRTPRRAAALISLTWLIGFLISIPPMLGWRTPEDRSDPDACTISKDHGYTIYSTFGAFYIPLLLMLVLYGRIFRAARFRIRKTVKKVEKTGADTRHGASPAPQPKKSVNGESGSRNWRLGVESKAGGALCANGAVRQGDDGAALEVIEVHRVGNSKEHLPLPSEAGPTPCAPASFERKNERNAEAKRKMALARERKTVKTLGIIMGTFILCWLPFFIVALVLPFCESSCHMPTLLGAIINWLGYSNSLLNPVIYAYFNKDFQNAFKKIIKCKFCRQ
Protocol: as §1

[3] = target: T3, 5-HT2c (Homo sapiens, UniProt P28335); experiment: Radioligand binding, 5-HT2c ([3H]Mesulergine); details: read-out: Binding affinity (Inhibition rate % at 10 μM) 5HT2c
T3 construct: purchased Euroscreen/BioSignal Packard Inc
T3 sequence (P28335 33-458): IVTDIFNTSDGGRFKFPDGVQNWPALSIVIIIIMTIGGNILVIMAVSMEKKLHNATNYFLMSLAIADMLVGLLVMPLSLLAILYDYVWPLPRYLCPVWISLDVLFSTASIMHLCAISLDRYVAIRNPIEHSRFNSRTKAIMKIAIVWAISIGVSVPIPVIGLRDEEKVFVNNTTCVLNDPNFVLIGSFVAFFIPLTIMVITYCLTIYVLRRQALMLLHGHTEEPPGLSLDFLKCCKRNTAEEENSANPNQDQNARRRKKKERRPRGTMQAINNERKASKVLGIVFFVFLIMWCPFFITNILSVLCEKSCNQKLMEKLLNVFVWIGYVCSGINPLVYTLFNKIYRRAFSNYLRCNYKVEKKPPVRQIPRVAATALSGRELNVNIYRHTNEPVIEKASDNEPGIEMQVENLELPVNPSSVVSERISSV
Protocol: as §1

[4] = target: T4, human serotonin 5-HT6 receptor (Homo sapiens, UniProt P50406); experiment: [3H]LSD binding at cloned 5-HT6 receptors; details: for IC50: [3H]LSD 1.87 nM, cloned receptor membranes, 37° C., 60 min, read-out: IC50; for inhibition at 10 µM: read-out: Binding affinity (Inhibition rate % at 10 μM) 5HT6
T4 construct: made in house; host or cells: Sf21 insect cells (pBacPAK8 baculovirus vector)
T4 sequence (P50406 whole entry): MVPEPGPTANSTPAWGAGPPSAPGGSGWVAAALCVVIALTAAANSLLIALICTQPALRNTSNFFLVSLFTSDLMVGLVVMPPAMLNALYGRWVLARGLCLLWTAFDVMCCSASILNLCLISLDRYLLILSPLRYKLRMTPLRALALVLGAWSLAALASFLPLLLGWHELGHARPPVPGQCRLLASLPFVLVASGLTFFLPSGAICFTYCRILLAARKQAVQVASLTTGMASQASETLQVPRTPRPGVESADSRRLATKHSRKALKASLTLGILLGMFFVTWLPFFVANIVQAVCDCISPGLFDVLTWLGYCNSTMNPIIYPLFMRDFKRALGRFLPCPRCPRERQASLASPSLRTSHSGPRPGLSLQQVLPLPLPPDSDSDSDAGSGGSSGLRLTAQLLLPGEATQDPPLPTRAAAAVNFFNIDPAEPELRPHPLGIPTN

[5] = target: T5, hD2L receptor (Homo sapiens, UniProt P14416); experiment: Radioligand binding, dopamine D2 ([3H]spiperone); details: read-out: Binding affinity (Inhibition rate % at 10 μM) D2
T5 construct: purchased BioSignal Packard Inc., Montreal, Canada
T5 sequence (P14416 whole entry): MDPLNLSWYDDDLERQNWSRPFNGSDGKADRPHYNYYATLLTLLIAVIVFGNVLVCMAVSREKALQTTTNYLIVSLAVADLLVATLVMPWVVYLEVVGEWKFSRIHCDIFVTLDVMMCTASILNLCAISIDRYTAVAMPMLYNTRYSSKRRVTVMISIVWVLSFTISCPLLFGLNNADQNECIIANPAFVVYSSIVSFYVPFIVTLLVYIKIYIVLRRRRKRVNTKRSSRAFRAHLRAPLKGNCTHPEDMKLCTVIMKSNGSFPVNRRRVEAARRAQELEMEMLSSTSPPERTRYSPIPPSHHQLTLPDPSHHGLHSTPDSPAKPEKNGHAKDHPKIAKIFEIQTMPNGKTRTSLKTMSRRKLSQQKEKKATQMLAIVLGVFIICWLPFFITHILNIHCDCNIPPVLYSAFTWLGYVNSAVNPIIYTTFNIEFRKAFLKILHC
Protocol: (§2) The radioligands used were [^3H] spiperone (for hD2L and hD3 receptors, 1 nM) and [^3H] YM-09151-2 (for hD4.2 receptor, 0.06 nM). Radioligand bindings were performed by the protocols provided by the supplier of receptor membranes (BioSignal Packard Inc., Montreal, Canada). Briefly, the buffer used in D2 or D3 receptor binding assay was 50 mM Tris-HCl (pH 7.4), 10 mM MgCl2, 1 mM EDTA, or 50 mM Tris-HCl (pH 7.4), 5 mM MgCl2, 5 mM EDTA, 5 mM KCl, 1.5 mM CaCl2, 120 mM NaCl, respectively. In [^3H] YM-09151-2 receptor binding assays, the buffer containing 50 mM Tris-HCl (pH 7.4), 5 mM MgCl2, 5 mM EDTA, 5 mM KCl and 1.5 mM CaCl2 was used. Nonspecific binding was determined with haloperidol (10 μM) or clozapine (10 μM) for D2 and D3, and D4 receptors, respectively. Competition binding studies were carried out with 7-8 concentrations of the test compound run in duplicate tubes, and isotherms from three assays were calculated by computerized nonlinear regression analysis (GraphPad Prism Program, San Diego, […]) to yield median inhibitory concentration (IC50) values.

[6] = target: T6, 5-HT2a (Homo sapiens, UniProt P28223); experiment: Radioligand binding, 5-HT2a ([3H]Ketanserin); details: read-out: Binding affinity (Inhibition rate % at 10 μM) 5HT2a
T6 construct: purchased Euroscreen/BioSignal Packard Inc
T6 sequence (P28223 whole entry): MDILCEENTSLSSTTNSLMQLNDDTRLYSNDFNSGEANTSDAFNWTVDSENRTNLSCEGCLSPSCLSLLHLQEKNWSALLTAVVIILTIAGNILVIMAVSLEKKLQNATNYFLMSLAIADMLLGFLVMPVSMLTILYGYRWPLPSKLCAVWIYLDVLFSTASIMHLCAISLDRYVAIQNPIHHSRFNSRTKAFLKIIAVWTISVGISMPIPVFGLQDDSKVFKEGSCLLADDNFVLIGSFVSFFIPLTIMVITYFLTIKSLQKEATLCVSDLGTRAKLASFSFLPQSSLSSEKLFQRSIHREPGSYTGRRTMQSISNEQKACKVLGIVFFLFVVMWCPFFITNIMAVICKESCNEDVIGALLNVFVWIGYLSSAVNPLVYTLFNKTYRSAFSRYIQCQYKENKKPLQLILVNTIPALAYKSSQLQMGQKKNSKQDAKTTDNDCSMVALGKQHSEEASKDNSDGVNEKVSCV
Protocol: as §1

[7] = target: T7, hD4.2 receptor (Homo sapiens, UniProt P21917, DEL265-296); experiment: Radioligand binding, dopamine D4 ([3H]YM-09151-2); details: read-out: Binding affinity (Inhibition rate % at 10 μM) D4
T7 construct: purchased BioSignal Packard Inc., Montreal, Canada
T7 sequence (P21917 with tags, fused parts or gaps DEL265-296): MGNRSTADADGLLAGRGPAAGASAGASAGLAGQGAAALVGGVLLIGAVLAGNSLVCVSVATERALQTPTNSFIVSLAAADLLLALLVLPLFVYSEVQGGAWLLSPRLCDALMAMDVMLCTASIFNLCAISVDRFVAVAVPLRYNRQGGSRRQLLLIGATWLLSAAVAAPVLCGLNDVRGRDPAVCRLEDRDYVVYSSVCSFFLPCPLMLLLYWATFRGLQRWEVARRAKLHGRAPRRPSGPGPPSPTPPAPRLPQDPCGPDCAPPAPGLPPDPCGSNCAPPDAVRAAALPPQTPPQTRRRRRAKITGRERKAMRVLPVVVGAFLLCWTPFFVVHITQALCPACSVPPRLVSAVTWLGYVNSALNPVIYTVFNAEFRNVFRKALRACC
Protocol: as §2

[8] = target: T8, hD3 receptor (Homo sapiens, UniProt P35462); experiment: Radioligand binding, dopamine D3 ([3H]spiperone); details: read-out: Binding affinity (Inhibition rate % at 10 μM) D3
T8 construct: purchased BioSignal Packard Inc., Montreal, Canada
T8 sequence (P35462 whole entry): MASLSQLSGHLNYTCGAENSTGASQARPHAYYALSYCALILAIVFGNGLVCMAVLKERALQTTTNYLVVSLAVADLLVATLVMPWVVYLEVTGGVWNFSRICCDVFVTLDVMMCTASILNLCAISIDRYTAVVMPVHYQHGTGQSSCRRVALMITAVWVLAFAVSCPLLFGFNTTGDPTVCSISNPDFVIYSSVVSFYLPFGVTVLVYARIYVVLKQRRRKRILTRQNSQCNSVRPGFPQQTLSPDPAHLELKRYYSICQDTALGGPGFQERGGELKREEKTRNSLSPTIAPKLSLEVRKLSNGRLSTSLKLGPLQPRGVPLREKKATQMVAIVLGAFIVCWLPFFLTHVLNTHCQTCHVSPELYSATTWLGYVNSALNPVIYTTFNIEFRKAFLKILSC
Protocol: as §2

[9] = target: D1 (Homo sapiens, UniProt P21728); experiment: Radioligand binding for selectivity, D1; details: read-out: Binding affinity (Inhibition rate % at 10 μM) D1
Chain of D1 (P21728 whole entry): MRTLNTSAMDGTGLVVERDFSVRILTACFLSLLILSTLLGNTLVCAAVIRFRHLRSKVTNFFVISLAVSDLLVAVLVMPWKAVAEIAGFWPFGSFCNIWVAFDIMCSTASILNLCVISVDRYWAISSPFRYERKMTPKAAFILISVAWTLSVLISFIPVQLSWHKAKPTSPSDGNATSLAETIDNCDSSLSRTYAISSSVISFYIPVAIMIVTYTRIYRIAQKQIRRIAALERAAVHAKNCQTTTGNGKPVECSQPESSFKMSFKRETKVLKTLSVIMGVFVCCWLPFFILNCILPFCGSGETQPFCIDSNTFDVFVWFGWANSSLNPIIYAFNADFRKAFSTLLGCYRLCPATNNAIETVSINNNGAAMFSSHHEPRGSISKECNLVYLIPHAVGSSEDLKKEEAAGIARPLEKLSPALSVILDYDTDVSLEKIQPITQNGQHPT

T1 sequence (P34969 whole entry): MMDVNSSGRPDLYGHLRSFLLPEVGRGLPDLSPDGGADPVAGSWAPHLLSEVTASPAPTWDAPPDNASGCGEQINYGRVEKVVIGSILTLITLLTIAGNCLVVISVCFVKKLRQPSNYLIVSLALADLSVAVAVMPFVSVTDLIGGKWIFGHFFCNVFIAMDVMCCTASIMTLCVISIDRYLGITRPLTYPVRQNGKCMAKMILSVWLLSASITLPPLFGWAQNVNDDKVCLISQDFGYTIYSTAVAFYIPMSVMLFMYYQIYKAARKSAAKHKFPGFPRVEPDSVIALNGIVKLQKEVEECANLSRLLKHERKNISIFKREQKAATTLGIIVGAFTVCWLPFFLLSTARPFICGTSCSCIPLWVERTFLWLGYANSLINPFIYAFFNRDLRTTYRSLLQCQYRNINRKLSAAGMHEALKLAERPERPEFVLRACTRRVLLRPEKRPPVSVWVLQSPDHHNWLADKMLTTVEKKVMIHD

Row | SMILES | inhibition at 10 µM [1] [%] | inhibition at 10 µM [2] [%] | inhibition at 10 µM [3] [%] | IC50 [4] [nM] | inhibition at 10 µM [4] [%] | inhibition at 10 µM [5] [%] | inhibition at 10 µM [6] [%] | inhibition at 10 µM [7] [%] | inhibition at 10 µM [8] [%] | melting point [°C] | inhibition at 10 µM [9] [%] | 5-HT6 affinity compared with known selective antagonists ([4]; in words)
1 | CC1(c2ccccc2)C(=O)Nc2ccccc2C1=O (centres unmarked) [Example 2, 3-methyl-3-phenyl-1H-quinoline-2,4-dione] | 10.4 | 15 | 30.6 | 1080 | 73.2 | 5.6 | 8.4 | 0 | 12.2 | 194 to 196 | 10.2 | –
2 | CC1(c2ccccc2)C(=O)Nc2cc(Cl)ccc2C1=O (centres unmarked) [Example 3, 7-chloro-3-methyl-3-phenyl-1H-quinoline-2,4-dione] | 7 | 40.2 | 8.9 | 2470 | 69 | 4.9 | 12 | 0 | 10.9 | 174 to 175 | 25.5 | –
3 | CC1(c2ccccc2)C(=O)Nc2cc(Br)cc(Br)c2C1=O (centres unmarked) [Example 4, 5,7-dibromo-3-methyl-3-phenyl-1H-quinoline-2,4-dione] | 13 | 11.7 | 29.8 | 320 | 70.9 | 3 | 13.6 | 0 | 15.8 | 202 to 203 | 23.7 | –
4 | COc1cc(Cl)cc2c1C(=O)C(C)(c1ccccc1)C(=O)N2 (centres unmarked) [Example 6, 7-chloro-5-methoxy-3-methyl-3-phenyl-1H-quinoline-2,4-dione] | 19.5 | 65.8 | 13.5 | 428 | 68.3 | 29.7 | 10.6 | 1.6 | 23 | 267 to 269 | 31.1 | –
5 | CC1(c2ccccc2)C(=O)Nc2cc(Cl)c(Cl)cc2C1=O (centres unmarked) [Example 9, 6,7-dichloro-3-methyl-3-phenyl-1H-quinoline-2,4-dione] | 10.8 | 45.2 | 30.4 | 1060 | 71.2 | 8.2 | 16.6 | 0 | 10.8 | 213 to 214 | 26.2 | –
6 | CN(C)c1cc(Cl)c2c(c1)NC(=O)C(C)(c1ccccc1)C2=O (centres unmarked) [Example 11, 5-chloro-7-dimethylamino-3-methyl-3-phenyl-1H-quinoline-2,4-dione] | 35.2 | 49.5 | 20 | 1160 | 70.7 | 19.3 | 30.4 | 0.4 | 20.5 | 224 to 226 | 40.5 | –
7 | COc1ccc(C2(C)C(=O)Nc3cc(Cl)cc(Cl)c3C2=O)cc1 (centres unmarked) [Example 12, 5,7-dichloro-3-(4-methoxy-phenyl)-3-methyl-1H-quinoline-2,4-dione] | 23.1 | 40.2 | 5.7 | 917 | 73.3 | 16.3 | 8.5 | 0 | 24 | 210 to 212 | 15.7 | almost same affinities as or better affinities than known selective antagonists
8 | CC1(c2ccc(Br)cc2)C(=O)Nc2cc(Cl)cc(Cl)c2C1=O (centres unmarked) [Example 18, 3-(4-bromo-phenyl)-5,7-dichloro-3-methyl-1H-quinoline-2,4-dione] | 7.8 | 8 | 10.7 | 494 | 73.8 | 16 | 16.9 | 0 | 12.5 | 237 to 238 | 37.7 | –
9 | CN1CCN(c2cc(Cl)c3c(c2)NC(=O)C(C)(c2ccc(O)cc2)C3=O)CC1 (centres unmarked) [Example 47, 5-chloro-3-(4-hydroxy-phenyl)-3-methyl-7-(4-methyl-piperazine-1-yl)-1H-quinoline-2,4-dione] | 16.3 | 27.1 | 12.4 | 1060 | 71.9 | 27.2 | 42.8 | 12.8 | 14.2 | – | 20.9 | –
10 | CN1CCN(c2cc(Cl)c3c(c2)NC(=O)C(C)(c2ccc(N)cc2)C3=O)CC1 (centres unmarked) [Example 48, 3-(4-amino-phenyl) -5-chloro-3-methyl-7-(4-methyl-piperazine-1-yl)-1H-quinoline-2,4-dione] | 5.6 | 35 | 2.5 | 1080 | 71.6 | 19.6 | 37.2 | 0 | 8.7 | – | 27.4 | –
11 | CN1CCN(c2cc(Cl)c3c(c2)NC(=O)C(C)(c2ccc([N+](=O)[O-])cc2)C3=O)CC1 (centres unmarked) [Example 49, 5-chloro-3-methyl-7-(4-methyl-piperazine-1-yl)-3-(4-nitro-phenyl)-1H-quinoline-2,4-dione] | 24.4 | 1.4 | 19.8 | 1020 | 70.2 | 10.5 | 33.4 | 0 | 12.4 | – | 26 | –
